Data: the NIST ThermoML archive (doi:10.1021/acs.jced.7b00750)
Numbers after ± are expanded uncertainties.

How the values were obtained:
[1] = 100 kPa, Liquid, Vibrating tube method
[2] = xn = mol fraction of the nth substance listed; settings: 100 kPa, Liquid, Vibrating tube method, x2 = 0

O [water]
mass density ([1]; 274.15 K): 999.899 ± 0.11 kg/m3
mass density ([1]; 275.15 K): 999.94 ± 0.11 kg/m3
mass density ([1]; 276.15 K): 999.964 ± 0.11 kg/m3
mass density ([1]; 277.15 K): 999.972 ± 0.13 kg/m3
mass density ([1]; 278.15 K): 999.964 ± 0.11 kg/m3
mass density ([1]; 279.15 K): 999.94 ± 0.11 kg/m3
mass density ([1]; 280.15 K): 999.901 ± 0.11 kg/m3
mass density ([1]; 281.15 K): 999.848 ± 0.11 kg/m3
mass density ([1]; 282.15 K): 999.781 ± 0.11 kg/m3
mass density ([1]; 283.15 K): 999.699 ± 0.11 kg/m3
mass density ([1]; 323.15 K): 988.03 ± 0.11 kg/m3
mass density ([1]; 333.15 K): 983.191 ± 0.11 kg/m3

O [water] + CNC(N)=O
mass density ([2]; 274.15 K): 999.899 ± 0.11 kg/m3
mass density ([2]; 275.15 K): 999.94 ± 0.11 kg/m3
mass density ([2]; 276.15 K): 999.964 ± 0.11 kg/m3
mass density ([2]; 277.15 K): 999.972 ± 0.13 kg/m3
mass density ([2]; 278.15 K): 999.964 ± 0.11 kg/m3
mass density ([2]; 279.15 K): 999.94 ± 0.11 kg/m3
mass density ([2]; 280.15 K): 999.901 ± 0.11 kg/m3
mass density ([2]; 281.15 K): 999.848 ± 0.11 kg/m3
mass density ([2]; 282.15 K): 999.781 ± 0.11 kg/m3
mass density ([2]; 283.15 K): 999.699 ± 0.11 kg/m3
mass density ([2]; 323.15 K): 988.03 ± 0.11 kg/m3
mass density ([2]; 333.15 K): 983.191 ± 0.11 kg/m3
